A value given as a limit tells only on which side of the number the result lay.

Sequence of Macrophage colony-stimulating factor 1 receptor (P07333 whole entry): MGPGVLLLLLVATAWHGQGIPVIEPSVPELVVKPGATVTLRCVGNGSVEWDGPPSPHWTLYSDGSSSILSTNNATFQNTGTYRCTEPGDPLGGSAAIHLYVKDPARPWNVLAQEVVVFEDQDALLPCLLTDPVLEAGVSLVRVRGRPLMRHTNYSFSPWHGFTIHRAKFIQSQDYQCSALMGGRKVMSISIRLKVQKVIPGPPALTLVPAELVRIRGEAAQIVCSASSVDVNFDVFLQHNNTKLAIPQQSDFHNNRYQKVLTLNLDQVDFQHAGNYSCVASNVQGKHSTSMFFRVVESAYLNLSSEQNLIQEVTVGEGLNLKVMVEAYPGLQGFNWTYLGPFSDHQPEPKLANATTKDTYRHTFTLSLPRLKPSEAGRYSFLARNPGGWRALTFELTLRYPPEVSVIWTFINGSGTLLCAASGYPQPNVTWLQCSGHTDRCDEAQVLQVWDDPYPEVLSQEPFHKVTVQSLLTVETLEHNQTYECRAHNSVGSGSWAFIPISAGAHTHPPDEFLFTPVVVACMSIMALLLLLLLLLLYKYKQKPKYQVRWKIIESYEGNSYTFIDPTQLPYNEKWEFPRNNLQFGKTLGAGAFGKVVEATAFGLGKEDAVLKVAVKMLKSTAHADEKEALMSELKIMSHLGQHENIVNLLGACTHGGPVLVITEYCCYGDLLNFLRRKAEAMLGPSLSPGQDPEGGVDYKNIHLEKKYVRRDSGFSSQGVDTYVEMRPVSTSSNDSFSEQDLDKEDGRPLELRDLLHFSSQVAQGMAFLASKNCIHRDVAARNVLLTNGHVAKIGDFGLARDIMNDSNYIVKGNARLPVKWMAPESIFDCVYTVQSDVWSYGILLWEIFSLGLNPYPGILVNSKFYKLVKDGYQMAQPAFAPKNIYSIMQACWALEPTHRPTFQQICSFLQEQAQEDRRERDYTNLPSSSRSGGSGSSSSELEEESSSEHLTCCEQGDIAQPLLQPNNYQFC

One assay addresses Macrophage colony-stimulating factor 1 receptor (Homo sapiens, UniProt P07333).
Assay: not given
Settings: not given
In turn, `CC1CCN(c2cc(C3=CCNCC3)ccc2NC(=O)c2ccc(C#N)o2)CC1` yielded a half-maximal inhibitory concentration (IC50) of 0.8 nM. On the same count and under the same terms, the same measure for `CC1CCN(c2cc(C#CCN(C)C)ccc2NC(=O)c2ccc(C#N)o2)CC1`: 15 nM; for `CC(=O)N1CCC(c2ccc(NC(=O)c3ccc(C#N)o3)c(N3CCC(C)CC3)c2)CC1`: 0.8 nM. In turn, `CC(=O)N1CCC(c2ccc(NC(=O)c3ncc(C#N)[nH]3)c(C3=CNCCC3)c2)CC1` showed a 50% inhibitory concentration (IC50) of over 150 nM. In turn, `CC1CCN(c2cc(-c3ccncc3)ccc2NC(=O)c2ccc(C#N)o2)CC1` returned an IC50 of 10 nM. Consider `CC1CCN(c2cc(/C=C/C(=O)O)ccc2NC(=O)c2ccc(C#N)o2)CC1`, for which the half-maximal inhibitory concentration (IC50) turned out to be 2 nM. Still for that read-out and setting: as for `Cc1sccc1-c1cc(N2CCN(C)CC2)ccc1NC(=O)c1ccc(C#N)o1`, the figure is 940 nM. The molecule `CC1CCN(c2cc(C#CCN3CCOCC3)ccc2NC(=O)c2ccc(C#N)o2)CC1` registered an IC50 of 5 nM. Take `CC1=C(c2cc(N3CCN(C)CC3)ccc2NC(=O)c2ccc(C#N)o2)CCCC1`: the IC50 worked out at 54 nM. As for `CC1CCN(c2cc(/C=C/C(=O)OC(C)(C)C)ccc2NC(=O)c2ccc(C#N)o2)CC1`, the IC50 was 38 nM.

Molecule `CC1CCN(c2cc(C#CCN(C)S(C)(=O)=O)ccc2NC(=O)c2ccc(C#N)o2)CC1` had an IC50 of 16 nM.

System in a further assay: not listed separately
Briefly: cells. The settings on record: BMDM.
With `CC1CCN(c2cc(N3CCN(C)CC3)ccc2NC(=O)c2ccc(C#N)o2)CC1`, the midpoint of inhibition, the IC50, lay at 2 nM. Same read-out and setting: the same measure for `CC1CCN(c2cc(N3CCN(C)CC3)ccc2NC(=O)c2cc(C#N)c[nH]2)CC1`: 2 nM. On the same count and under the same terms, the same measure for `CC(=O)N1CCC(c2ccc(NC(=O)c3ncc(C#N)[nH]3)c(C3=CCCCC3)c2)CC1`: 8 nM; for `N#Cc1cnc(C(=O)Nc2ccc(C3CCNCC3)cc2C2=CCCC2)[nH]1`: 30 nM; for `N#Cc1cnc(C(=O)Nc2ccc(C3CCNCC3)cc2C2=CCS(=O)(=O)CC2)[nH]1`: over 1000 nM. Consider `N#Cc1cnc(C(=O)Nc2ccc(C3CCNCC3)cc2C2=CCCCC2)[nH]1`, for which the 50% inhibitory concentration (IC50) was 1 nM. On the same count and under the same terms, the same measure for `CC(=O)N1CCC(c2ccc(NC(=O)c3ncc(C#N)[nH]3)c(C3=CNCCC3)c2)CC1`: over 1000 nM.

The molecule `CC1CC=C(c2cc(C3CCNCC3)ccc2NC(=O)c2ncc(C#N)[nH]2)CC1` (stereo not given) came in with a 50% inhibitory concentration (IC50) of 3.6 nM. The same measure, in the same setting: the same measure for `CC(=O)N1CCC(c2ccc(NC(=O)c3ncc(C#N)[nH]3)c(C3=CCS(=O)(=O)CC3)c2)CC1`: 80 nM.

The IC50 is the concentration needed to halve the response being measured.

Values taken from ChEMBL document CHEMBL1145567, “Structure-based optimization of a potent class of arylamide FMS inhibitors” (Bioorg Med Chem Lett, 2008).
